A melting point compilation (Tetko et al.; mined from patent text by program, amines drawn as free bases though some values may be those of a salt)

| SMILES | melting point [°C] |
| --- | --- |
| CNc1ncnc2c(NC3OC(CO)C(O)C3O)ncnc12 (stereo not drawn) | 230 |
| CCCCCCCCCCCCc1ccc(COc2cc(C(=O)O)nc3ccc(C)cc23)cc1 | 95 to 96 |
| ClC1=NC(Cl)(c2ccc(Cl)cc2)NC=N1 (stereo not drawn) | 142 to 143 |
| Nc1nc(OCc2cccc(Br)c2)ncc1F | 143 to 145 |
| OC1CCC(c2ccc(OCCCCCCCCCCCBr)cc2)CC1 (stereo not drawn) | 100 to 101 |
| Cc1cn(C(C)(C(=O)N(C)C)c2ccccc2)nc1-c1ccccc1Cl (stereo not drawn) | 96 to 99 |
| CCOC(=O)c1nnnn1Cc1ccccc1[N+](=O)[O-] | 90 to 92 |
| O=c1[nH]c2ccc(S(=O)(=O)N3CCN(c4ccccn4)CC3)c3c2c2c(cccc12)C3 | 263 to 270 |
| CCOC(=O)c1nc2c(=O)[nH]c3cc(C(F)(F)F)ccc3n2c1CP(=O)(O)O | > 250 |
| CN(C)c1cccc(CNc2nc(Nc3cccc(NS(C)(=O)=O)c3)nc3[nH]cnc23)c1 | 148 to 151 |
| Cc1cc(C(=O)NCOC(=O)CO)ncc1C(c1cc(F)ccc1F)S(=O)(=O)c1ccc(F)cc1 (stereo not drawn) | 84 |
| Clc1ccc(Cn2ccc3cc(OCc4nnn[nH]4)ccc32)cc1 | 162 to 163 |
| C=C/C=C/CCOC(=O)c1cc(CBr)cc(CBr)c1 | 50 to 52 |
| NS(=O)(=O)c1ccccc1-c1ccccn1 | 186 to 190 |
| COc1ccc2nccc(CCC[C@@H]3CCN(CCCc4ccccc4F)C[C@@H]3C(=O)O)c2c1 | 194 |
| CC1Cc2cc3c(cc2C1=O)C(C)(C)CCC3(C)C (stereo not drawn) | 74 to 75.5 |
| N#CC(=Cc1ccc(Cl)cc1Cl)n1cncn1 | 156 to 160 |
| N#Cc1c[nH]cc1-c1ccc(Cl)cc1C(=O)c1ccccc1Cl | 182 to 184 |
| CCOC(=O)CC12C(OS(=O)(=O)C(F)(F)F)=CC(C(C)CCCC(C)C)C1(C)CCC1=C2CCC2CC(OC(=O)c3ccccc3)CCC12C (stereo not drawn) | 132 to 134 |

| SMILES | melting point [°C] |
| --- | --- |
| O=[N+]([O-])c1cn(C2OC(CO)C(O)C2O)nn1 (stereo not drawn) | 172 to 174 |
| COC(=O)NCC(C)OS(C)(=O)=O (stereo not drawn) | 37 to 40 |
| O=C1N(O)CCC12CCOc1ccc(F)cc12 (stereo not drawn) | 208 to 209 |
| Cc1cc(-c2nc3c(s2)C(=O)c2ccccc2C3=O)oc1C | 250 |
| CC1CN(CC(N)=O)C(=O)N1 (stereo not drawn) | 124 |
| Cc1ccc(S(=O)(=O)OCCOc2ccc(OC(F)(F)F)cc2)cc1 | 35 to 36 |
| CCOc1cc([C@@H](CCN(C=O)OC(C)=O)N2Cc3cccc(NC(=O)C(C)C)c3C2=O)ccc1OC | 72 to 74 |
| COC(=O)c1cccc(C2C(C#N)=C(N)Oc3c2ccc2cccnc32)c1 (stereo not drawn) | 198 to 200 |
| CC(=NOCCOc1ccc(CC2SC(=O)NC2=O)cc1)c1cc(C)c(O)c(C)c1 (stereo not drawn) | 53 to 65 |
| COc1cc2ncnc(N3CCN(C(=S)Nc4ccc(CNC(=O)OC(C)(C)C)cc4)CC3)c2cc1OC | 123 to 126 |
| COc1cc(C2C3=C(COC3=O)N(C)c3cc4c(cc32)OCO4)cc(OC)c1O (stereo not drawn) | 250 |
| CC(C)Cc1csc2[nH]c(=O)c(=O)[nH]c12 | > 270 |
| COc1cccc(C(=O)c2sc(NC(=O)c3ccncc3)nc2-c2ccco2)n1 | 247 to 250 |
| CCN(CC)Cc1ccc2nc(-c3ccccc3F)cc(OCc3ccccc3)c2c1 | 51.2 to 51.5 |
| CCCC(C#N)(Cn1cncn1)c1ccc(F)cc1 (stereo not drawn) | 75 to 76 |
| CC(=O)OCCCNc1nnc(NCCCOC(C)=O)c2c1C(=O)c1ccccc1C2=O | 142 to 145 |
| Cc1ccc2c(NCc3ccc(NC(=O)c4ccc(C)nc4)cc3)nc(Cl)nc2c1 | 257 to 259 |
| O=C(NC(Cc1ccc(NCc2ccccc2)cc1)C(=O)O)c1cn2cc(-c3ccc(Cl)cc3)ccc2n1 (stereo not drawn) | 260 |
| CC(=O)Nc1ccc(S(=O)(=O)Cc2cccc(OC(C)=O)c2)c2ccc(C#N)nc12 | 229 to 231 |
